The term IC50 denotes the point on the concentration scale where inhibition reaches its midpoint.

The record followed here is PMC11324870, “Branched-chain amino acid transaminase 1 confers EGFR-TKI resistance through epigenetic glycolytic activation” (Signal Transduction and Targeted Therapy, 2024).

This test deals with T1, BCAT1 (branched-chain amino acid transaminase 1) (Homo sapiens, UniProt P54687).
T1 construct: recombinant human BCAT1 Protein (Sino Biological, #ME16FE2265)
T1 sequence (P54687 1-386): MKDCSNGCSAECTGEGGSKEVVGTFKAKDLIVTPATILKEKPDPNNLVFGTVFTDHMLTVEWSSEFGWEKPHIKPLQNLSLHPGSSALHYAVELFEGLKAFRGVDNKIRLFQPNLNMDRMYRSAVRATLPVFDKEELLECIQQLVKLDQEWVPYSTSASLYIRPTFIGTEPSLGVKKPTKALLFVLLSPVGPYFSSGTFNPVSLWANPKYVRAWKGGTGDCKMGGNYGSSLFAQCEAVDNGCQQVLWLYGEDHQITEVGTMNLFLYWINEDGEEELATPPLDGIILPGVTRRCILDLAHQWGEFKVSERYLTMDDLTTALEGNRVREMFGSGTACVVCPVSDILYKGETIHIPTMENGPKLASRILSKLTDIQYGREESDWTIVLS
Kind of test: coupled fluorescence (resazurin) enzyme activity assay with purified recombinant BCAT1; also CETSA in […] cells. It is filed as biochemical. On the technique in general: Resazurin is reduced to fluorescent resorufin, in cell work by metabolically active cells.

With `NCC1(CC(=O)O)CC2CCC1C2` (racemic) [WQQ-345], the IC50 was determined as 10.8 mM.
